Measurements as given in ChEMBL document CHEMBL1147327, “Developments in marine natural products. Receptor-specific bioactive compounds” (1993).
Active and inactive are the calls of the source. The rule behind the calls is not given here.

What was measured:
Candida albicans [1] = assay: Antifungal activity against Candida albicans in presence of 100 ppm exogenous ergosterol by agar disk diffusion assay; format: functional, organism-based
Candida albicans [2] = assay: Antifungal activity against Candida albicans by agar disk diffusion assay; format: functional, organism-based
Candida albicans [3] = assay: Antifungal activity against Candida albicans at 0.5 ug/disk by agar disk diffusion assay; format: functional; settings: read-out: IZ
Candida albicans [4] = assay: Antifungal activity against Candida albicans at 10 ug in presence of 20 ppm exogenous ergosterol; format: functional

SMILES	zone of inhibition at 0.5 µg/disc (Candida albicans [3]) [mm]	also measured
CC1=C[C@@H]2C[C@@H](C)[C@]3(C)C[C@@H]([C@@]4(C)CC[C@@H]([C@@H](C)C(=O)O)OO4)O[C@]3(C)[C@@H]2CC1		Activity (Candida albicans [1]): Active
COC(=O)[C@H](C)[C@@H]1CC[C@](C)([C@@H]2C[C@@]3(C)[C@H](C)C[C@H]4C=C(C)CC[C@H]4[C@@]3(C)O2)OO1		Activity (Candida albicans [2]): inactive
CCCCCCCCCCCCCC(=O)O[C@@H](c1cnco1)c1nc([C@@H](O)C[C@@H](O)[C@@H](O)[C@@H](C)O)co1 [BENGAZOLE A]	9	
CCC(C)CCCCCCCCCCC(=O)O[C@@H](c1cnco1)c1nc([C@H](O)C[C@@H](O)[C@@H](O)[C@@H](C)O)co1 (stereo partly specified) [BENGAZOLE B1]	9	
CC(C)CCCCCCCCCCCC(=O)O[C@@H](c1cnco1)c1nc([C@@H](O)C[C@@H](O)[C@@H](O)[C@@H](C)O)co1 [BENGAZOLE B]	9	Activity (Candida albicans [4]): 50%
CCCCCCCCCCCCC(=O)O[C@@H](c1cnco1)c1nc([C@@H](O)C[C@@H](O)[C@@H](O)[C@@H](C)O)co1 [BENGAZOLE C]	9	
CC(C)CCCCCCCCCCC(=O)O[C@@H](c1cnco1)c1nc([C@@H](O)C[C@@H](O)[C@@H](O)[C@@H](C)O)co1 [BENGAZOLE D]	9	
CCCCCCCCCCCCCCC(=O)O[C@@H](c1cnco1)c1nc([C@@H](O)C[C@@H](O)[C@@H](O)[C@@H](C)O)co1 [BENGAZOLE E]	9	
CCC(C)CCCCCCCCCCCC(=O)O[C@@H](c1cnco1)c1nc([C@@H](O)C[C@@H](O)[C@@H](O)[C@@H](C)O)co1 (stereo partly specified) [BENGAZOLE F]	9	
CCCCCCCCCCCCCCCC(=O)O[C@@H](c1cnco1)c1nc([C@@H](O)C[C@@H](O)[C@@H](O)[C@@H](C)O)co1 [BENGAZOLE G]	9	
